The values that follow come from paper PMC9127232, “Wound Healing Properties of Jasione montana Extracts and Their Main Secondary Metabolites” (Frontiers in Pharmacology, 2022).

Structures are written as SMILES.

Test [1] is described as follows: DPPH radical-scavenging assay. The conditions noted are these: 30 min, absorbance 517 nm, mean ± SD. The procedure:
All extracts (JM1–JM6) and main components of the tested extracts (9, 12, and 22) were isolated and identified as previously described ([Juszczak et al., 2021]). A total of 130 μL of sample solution at various concentrations was mixed with 70 μL of DPPH (0.2 mg/mL) in a 96-well plate. Then, the reaction mixture was incubated in the dark at room temperature. After 30 min, the absorbance was recorded at 517 nm using a microplate reader (BioTek Instruments microplate spectrophotometer EPOCH 2, Oxfordshire, United Kingdom). A blank solution was prepared by mixing methanol and DPPH solution. Trolox was used as a positive control. The experiment was performed in triplicate. RSA(%)=(C-S)/C×100% where C is the negative control and S is the sample. Concentration of the tested samples, which scavenges 50% of free radicals present in the solution (IC50), was calculated.

The test system of test [2] is IL-6 in fibroblast cells (PCS-201-012). As to the kind of experiment: Cytometric Bead Array, IL-6 secretion. The format is cell-based, human. The conditions noted are these: 50 μg/mL, 24 h, positive control. How it is done: (§1) The normal human dermal fibroblast cell line (PCS-201-012) was cultured in DMEM blended with 10% fetal bovine serum (FBS), 10 μg/mL streptomycin, and 10 units/mol penicillin. The cells were cultured in 5% CO2 and fully humidified at 37°C. All tested compounds were dissolved at a final vehicle (DMSO) concentration of not more than 0.5% (v/v). Cells cultured in drug-free DMEM were used as controls, and cells treated with DMSO alone were used as solvent controls. All extracts (JM1–JM6) and the main components of the tested extracts (9, 12, and 22) were analyzed at the following concentrations: 10, 25, 50, 100, 200, and 300 μg/mL. The effect of the tested extracts and fractions (JM1–JM6) as well as 9, 12, and 22 on cytokine (IL-1β, IL-6 IL-8, IL-10, IL-12p70 and TNF) secretion was determined using the Cytometric Bead Array (CBA) Human Inflammatory Cytokine Kit according to the manufacturer’s protocols. After 24 h of incubation with the test samples at concentrations of 10, 25, 50, 100, 200, and 300 μg/mL, fibroblast cells were washed with PBS, trypsinized, resuspended in DMEM and centrifuged (1,200 rpm, 10 min, 4°C). The supernatant was then replaced with 50 μL of assay diluent with the addition of 50 μL of assay beads and 50 μL of PE-labeled antibodies (detection reagent) from the human inflammatory cytokine kit. Incubation was performed for 3 h at room temperature without daylight, after which the fibroblast cells were washed and centrifuged (1,200 rpm, 5 min, 4°C). The cell pellet was resuspended in 300 μL of wash buffer and then immediately subjected to analysis by FCAP Array v3 software on a BD FACSCanto II flow cytometer (both from BD Biosciences Systems, San Jose, CA, United States) calibrated with BD Cytometer Setup and Tracking beads (BD Biosciences, San Diego, CA, United States).

Test [3] relates to IL-8 in fibroblast cells (PCS-201-012). As to the kind of experiment: Cytometric Bead Array, IL-8 secretion. The format is cell-based, human. The settings on record: 50 μg/mL, 24 h, positive control. How it is done: as §1
Test [4] relates to IL-1β in fibroblast cells (PCS-201-012). Kind of test: Cytometric Bead Array, IL-1β secretion. Type of test: cell-based, human. The conditions noted are these: 50 μg/mL, 24 h, positive control. The procedure: as §1
Test [5] relates to collagen type I in fibroblast cells (PCS-201-012). Kind of test: Collagen type I biosynthesis by flow cytometry. The format is cell-based, human. The settings on record: 50 μg/mL, 24 h; control 1822 ± 62.2. The procedure:
The normal human dermal fibroblast cell line (PCS-201-012) was cultured in DMEM blended with 10% fetal bovine serum (FBS), 10 μg/mL streptomycin, and 10 units/mol penicillin. The cells were cultured in 5% CO2 and fully humidified at 37°C. All tested compounds were dissolved at a final vehicle (DMSO) concentration of not more than 0.5% (v/v). Cells cultured in drug-free DMEM were used as controls, and cells treated with DMSO alone were used as solvent controls. All extracts (JM1–JM6) and the main components of the tested extracts (9, 12, and 22) were analyzed at the following concentrations: 10, 25, 50, 100, 200, and 300 μg/mL. The effect of the tested extracts and fractions (JM1–JM6), as well as their main compounds (9, 12, and 22) on collagen type I biosynthesis was determined using a method of cytometric staining of the surface anti-collagen type I according to the manufacturer’s protocols. Fibroblasts were incubated for 24 h at 37°C with the test samples at concentrations of 10, 25, 50, 100, 200, and 300 μg/mL. Allantoin (50 μg/mL) was used as a positive control. After incubation, fibroblasts were washed with PBS, trypsinized, resuspended in DMEM and centrifuged (1,200 rpm, 10 min, 4°C). The supernatant was removed, and the cells were washed with 2 mL of stain buffer. Then, the cells were incubated for 30 min on ice with 100 µL of stain buffer and 1 µL of antibody. After complete incubation, 2 mL of stain buffer was added. After consecutive centrifugation (1,200 rpm, 10 min, 4°C), the supernatant was removed, the cells were resuspended in 300 µL of buffer and then immediately subjected to analysis on a flow cytometer (BD FACSCanto II flow cytometer, San Jose, CA, United States) calibrated with BD Cytometer Setup and Tracking beads (BD Biosciences, San Diego, CA, United States). The median fluorescence intensity was calculated using FACSDiva software (BD Biosciences Systems, San Jose, CA, United States) and analyzed by FCS Express 7 software (DeNovo Software, Pasadena, CA, United States).
(In general: A flow cytometer gives signals particle by particle.)

For the compound `Cc1c(C)c2c(c(C)c1O)CCC(C)(C(=O)O)O2` (centres unmarked) [Trolox, reference compound], in test [1], the “DPPH, IC50” value amounted to 58.6 ± 0.1 µg/mL.

With `NC(=O)NC1NC(=O)NC1=O` (centres unmarked) [allantoin, reference compound], in test [2], the “IL-6 (in words)” value is listed as “upregulation of IL-6”. For the same compound, the “IL-8 expression (in words)” value in test [3] was “decrease in IL-8 expression”. Besides, in test [4], the “IL-1β levels (in words)” value was “stimulation of proinflammatory IL-1β levels”. The “collagen type I content, median fluorescence intensity (MFI)” value in test [5] was 1,494 ± 2.8.
